Source: US8378115B2, “Monomethine dyes” (Thermo Fisher Scientific (Milwaukee) LLC, priority 2007, dated 2013)

Experiments:
λDNA = test: Fluorescence enhancement of dye with λDNA; type: binding; conditions: for Fluorescence relative to TO / Fluorescence λ DNA/ssDNA: 0.8 μM dye, 3.2 μM DNA, one minute; for Ratio λ DNA/ss: fluorescence λ DNA vs ss-DNA; for Relative Fluorescent Intensity: λ DNA, TO = 1.0
Experimental: (§1) Stock solutions (8 mM) of each dye were prepared by dissolving each compound in dimethylsulfoxide (DMSO). Stock dye solutions were diluted to a desired concentration in tris-EDTA (TE) buffer (10 mM Tris, 1 mM EDTA, pH 8.0) immediately prior to use.
(§2) Stock solutions of λDNA and 40mer synthetic oligonucleotides (dsDNA and ssDNA), each at a concentration of 40 μM, were prepared in TE buffer. All DNA concentrations described are in base pairs of nucleotides. The DNA stock solutions were diluted to a desired concentration in TE buffer before being mixed with diluted dye solutions.
(§3) Fluorescence enhancement measurements of each dye were obtained by incubating dyes with λDNA, 40mer dsDNA, or 40mer ssDNA at a final concentration of 0.8 μM dye and 3.2 μM DNA for one minute. Fluorescence scans of the samples were performed with excitation wavelengths corresponding to the absorption maxima of the dyes. The resulting fluorescence intensities were compared to fluorescence intensities of Thiazole Orange (TO) and a compound equivalent to SYBR Green without the side chain (V02-06101), shown below,
(§4) [drawing 15] binding to λDNA, 40mer dsDNA, or 40mer ssDNA at a final concentration of 0.8 μM TO and 3.2 μM DNA for one minute, the same as for the tested dyes. The discrimination ratio between dsDNA and ssDNA was calculated by comparing the fluorescence intensities.

rRNA = test: Fluorescence of dye with rRNA; type: binding; conditions: for Ratio rRNA/ds: fluorescence rRNA vs 40-mer ds-DNA; for Ratio rRNA/ss: fluorescence rRNA vs 40-mer ss-DNA
40mer dsDNA = test: Fluorescence enhancement of dye with 40mer dsDNA; type: binding; conditions: for Relative Fluorescent Intensity: 40-mer ds-DNA, TO = 1.0; for Ratio ds/ss: fluorescence 40-mer ds-DNA vs ss-DNA
Experimental: as §1, §2, §3, §4

[1] = Absorption spectra of dye alone; type: physicochemical; conditions: for ε: in M-1·cm-1 (unit assumed)
Experimental: as §1
[…] […] Optical densities were determined at the absorbance maxima and the extinction coefficients were calculated using Beer's law.

[2] = test system: 110 bp and 925 bp fragments from human β-actin gene, 309 bp fragment from human Survivin gene, 413 bp fragment from human integrin α5 gene; test: qRT-PCR detection of longer PCR amplicons; type: biochemical; conditions: 20 ng to 60 ng dye; 110, 309, 413, 925 bp amplicons
Experimental: Compound V02-07027 was also used to detect the formation of longer PCR amplicons using qRT-PCR: The following by fragments were used: 110 bp and 925 bp fragments from human β-actin gene, a 309 bp fragment from human Survivin gene, and a 413 bp fragment from human integrin α5 gene. Real time PCR was performed on a Stratagene® MX3000 (Stratagene, La Jolla Calif.) instrument using an excitation wavelength of 492 nm and an emission wavelength of 516 nm. Each amplification reaction (25 μl) contained 10 ng or 100 ng of human Genomic DNA, 200 μM of each dNTP, 1.5 mM MgCl2, 50 mM KCL, 10 mM Tris-HCl, 400 nM of each of forward and reverse primers, and 2.5 units of Taq DNA polymerase (Thermo Fisher Scientific (Milwaukee Wis.)). Varying amounts of V02-07027 or a dye such as SYBR® Green (Invitrogen) were added to the reaction mix. Reactions were performed in triplicate and the data points represented the average signal.

RNA = test: Low range RNA quantification by fluorescence; type: binding; conditions: low range RNA assay
Experimental: Detecting and quantifying small amounts of RNA is important in many determinations such as quantitating in vitro transcription yields and quantitating RNA concentration before performing RNA containing assays. RNA is typically quantitated by determining absorbance at 260 nm (λ260), but disadvantages include protein interference, DNA absorbance, and the need for high concentration of RNA (>4 μg/ml). More sensitive fluorescence methods must be used to quantitate small amounts of RNA. A widely used RNA quantitation dye is RiboGreen® (Invitrogen), where 1 ng/ml of RNA can be detected and quantitated with a standard fluorometer, fluorescence microplate reader, or filter fluorometer.
In one embodiment, the V11-03001 compound may be used to quantitate RNA.

SMILES	Fluorescence relative to TO (λDNA)	Fluorescence λ DNA/ssDNA (λDNA)	Ratio λ DNA/ss (λDNA)	Relative Fluorescent Intensity (λDNA)	Ratio rRNA/ds (rRNA)	Ratio rRNA/ss (rRNA)	Relative Fluorescent Intensity (40mer dsDNA)	Ratio ds/ss (40mer dsDNA)	λex ([1]; Ethanol)	ε ([1]; Ethanol)	λex ([1]; TE Buffer, 8 μM dye)	ε ([1]; TE Buffer, 8 μM dye)	fluorescence enhancement when bound with RNA (rRNA)	binding to amplified DNA fragments [2]	fluorescence enhancement among all the dyes studied (λDNA; comparable to SYBR Green dye)	fluorescence intensities versus RiboGreen (RNA)	relationship between fluorescence intensity and total RNA concentration (RNA; FIG. 10)
CN1C(=Cc2cc[n+](C)c3ccccc23)Sc2ccccc21 [TO, Thiazole Orange, reference compound]	1	3.3	5.6	1.0	0.8	2.3	1.0	3.5	501 nm	77,000	501 nm	52,773					
CCN1C(=Cc2cc(-c3ccccc3)[o+]c3cc(OC)ccc23)Oc2ccccc21 [Dye V02-06135]	None	None							464 nm	43,000							
CCN(CC)c1ccc2c(/C=C3\Sc4ccccc4N3CC)cc(-c3ccccc3)[o+]c2c1 [Dye V02-06187]	0.7	6.7	5.2	0.7			0.5	2.1	550 nm	55,000	524 nm	19,668					
CCN(CC)c1ccc2c(/C=C3\Sc4ccccc4N3C)cc(N3CCN(CCO)CC3)[o+]c2c1 [Dye V13-01184]	5.3	6.1	2.0	5.3	1.0	1.4	6.1	1.4	480 nm	83,000	455 nm	40,321	significant fluorescence enhancement				
CCN(CCCN(C)C)c1ccc2c(/C=C3\Sc4ccccc4N3CC)cc(C(C)(C)C)[o+]c2c1 [Dye V02-07015]	4.0	3.7	3.7	4.0			4.0	2.3	522 nm	50,000	515 nm	37,365					
C[n+]1c(/C=C2\C=CN(c3ccccc3)c3ccccc32)sc2ccccc21 [Dye V02-06101, reference compound]	0.8	4.1															
CCN1C(=Cc2cc(-c3ccccc3)[o+]c3cc(OC)ccc23)Sc2ccccc21 [Dye V02-06132]	None	None							488 nm	43,000	480 nm	18,850					
CCN(CC)c1ccc2c(N(C)CCCN(C)C)cc(/C=C3\Sc4ccccc4N3C)[o+]c2c1 [Dye V02-07108]	3.1	1.8	1.9	3.1	0.8	1.1	3.5	1.4	498 nm	46,000	496 nm	27,418					
CCN(CC)c1ccc2c(/C=C3\Sc4ccccc4N3C)cc(N(C)CCCN(C)C)[o+]c2c1 [Dye V02-07027]	3.6	2.8	2.8	3.6			5.3	2.6	477 nm	60,000	475 nm	39,987		bound to amplified DNA fragments, generating a fluorescent signal			
CCN(CC)c1ccc2c(c1)O/C(=C\c1cc(N(C)CCCN(C)C)[o+]c3cc(N(CC)CC)ccc13)C=C2C [Dye V13-01026]	0.9	1.4	1.4	0.9			1.0	0.7	585 nm	48,000	543 nm	25,013					
CCN(CC)c1ccc2c(C=C3Sc4ccccc4N3CC)cc(C(C)(C)C)[o+]c2c1 [Dye V02-06124]	0.5	1.6	1.6	0.5			0.3	1.2	530 nm	85,000	515 nm	46,625					
CCN(CC)c1ccc2c(/C=C3\Sc4ccccc4N3C)cc(N(C)CCC[N+](C)(C)C)[o+]c2c1 [Dye V11-02190]			3.1	1.9	0.7	1.4	1.7	1.9	481 nm	25,600	477 nm	16,940					
CCCN(CCCN(C)C)C1=C/C(=C\c2sc3ccccc3[n+]2C)c2ccccc2N1c1ccccc1 [SYBR Green, reference compound]	10.6	8.3	8.3	10.6	0.3	1.0	15.0	7.5			494 nm	73,000					
CCN(CC)c1ccc2c(C=C3Oc4ccccc4N3CC)cc(C(C)(C)C)[o+]c2c1 [Dye V02-06136]	0.17	1	1	0.17			0.3	1.8	499 nm	72,000	492 nm	35,925					
CCN1c2cc3[o+]c(N(C)CCCN(C)C)cc(/C=C4\Sc5ccccc5N4C)c3cc2C(C)=CC1(C)C [Dye V12-02144]	3.6	2.8	2.0	1.7	0.7	1.5	2.7	2.1	492 nm	49,000	484 nm	28,355					
CCN(CC)c1ccc2c(/C=C3\Sc4ccccc4N3C)cc(N3CC[N+](C)(CCO)CC3)[o+]c2c1 [Dye V11-03001]			1.8	8.7	0.6	1.0	11.1	1.7	490 nm	95,000	487 nm	65,269	significant fluorescence enhancement		strongest fluorescence enhancement	comparable to those using RiboGreen®	linear relationship
